“And” between values parts separate entries of the source, which are not always exact repeats. Equal values may be shown once. Read-outs that look alike come from different tables or passages of the source.

Data set [1] has as its system MCF-7. In words: In vitro anti-estrogenic activity assay, MCF-7. The settings on record: for Cell Proliferation MCF-7 %: cell count relative to the control (17β-E2); for Cell Proliferation MCF-7 Cell Count: mean ± SD of triplicate.
The subject of data set [2] is MCF-7a. In words: In vitro anti-estrogenic activity assay, MCF-7a. The settings on record: for Cell Proliferation MCF-7a %: cell count relative to the control (17β-E2); for Cell Proliferation MCF-7a Cell Count: mean ± SD of triplicate.
Data set [3] addresses CDK2 (Homo sapiens, UniProt P24941). In words: In vitro protein kinase inhibition assay (ELISA kit), CDK2.
The target of data set [4] is T1, aromatase (CYP19A, EC 1.14.14.14) (Homo sapiens, UniProt P11511).
T1 construct: Microsomal samples were isolated from tissue using the Microsome Isolation Kit; tissue BioVision K983-100; host or cells: microsomes from an unnamed tissue
T1 sequence (P11511 1-503): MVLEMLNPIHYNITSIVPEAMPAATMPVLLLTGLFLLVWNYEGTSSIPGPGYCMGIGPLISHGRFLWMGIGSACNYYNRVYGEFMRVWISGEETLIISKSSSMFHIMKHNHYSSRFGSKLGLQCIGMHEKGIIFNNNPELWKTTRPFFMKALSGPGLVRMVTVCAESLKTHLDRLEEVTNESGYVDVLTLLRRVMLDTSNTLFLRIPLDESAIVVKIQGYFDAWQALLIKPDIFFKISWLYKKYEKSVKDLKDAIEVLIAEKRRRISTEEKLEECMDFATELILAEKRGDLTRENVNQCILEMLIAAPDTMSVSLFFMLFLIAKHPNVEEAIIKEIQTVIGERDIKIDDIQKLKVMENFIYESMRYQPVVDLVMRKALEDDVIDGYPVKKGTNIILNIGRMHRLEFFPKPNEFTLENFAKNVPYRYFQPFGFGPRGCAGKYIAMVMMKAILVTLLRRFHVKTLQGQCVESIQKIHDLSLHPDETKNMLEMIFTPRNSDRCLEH
In words: biochemical. The conditions noted are these: individual Data 1-3. Here is the method:
In vitro aromatase assay was performed using the BioVision Aromatase Activity Assay Kit (Catalog # K983-100; BioVision, Milpitas, CA, USA). Microsomal samples were isolated from tissue using the Microsome Isolation Kit (Cat. #K249; BioVision, Milpitas, CA, USA). A standard curve was established by diluting the Fluorescence Standard provided in the kit to create a 0.5 pmole/µL solution, followed by setting up a series of standards in a white 96-well plate, adjusting the total volume to 100 µL with aromatase assay buffer. For each reaction well, a 2X concentrated mix was prepared by adding 2–48 µL of the microsomal sample and 2 µL of the NADPH generating system, bringing the final volume to 50 µL with aromatase assay buffer. Background controls (no enzyme) and positive controls (with recombinant aromatase) were included. […] After a 10 min incubation at 37 °C, 30 µL of the substrate/NADP+ mixture was added to each well, and fluorescence was measured immediately in kinetic mode for 60 min at 37 °C. Finally, the change in fluorescence was calculated to determine the specific activity of aromatase using the formula provided in the kit protocol.

In data set [5] the test system is HCT-116, MDA-MB-231, HeLa, and MCF-7. In words: MTT cytotoxicity assay, ranges stated over several cell lines. The conditions noted are these: Homo sapiens. It is filed as cell-based. Here is the method: (§1) Subsequently, 100 µL of dimethyl sulfoxide was introduced to dissolve the insoluble formazan.
For data set [6], the target named is EGFR (Homo sapiens, UniProt P00533). In words: In vitro protein kinase inhibition assay (ELISA kit), EGFR. Background: ELISA stands for enzyme-linked immunosorbent assay.
Data set [7] addresses HER2 (Homo sapiens, UniProt P04626). In words: In vitro protein kinase inhibition assay (ELISA kit), HER2.
Data set [8] deals with VEGFR-2 (Homo sapiens, UniProt P35968). In words: In vitro protein kinase inhibition assay (ELISA kit), VEGFR-2.
The subject of data set [9] is HeLa. In words: MTT cytotoxicity assay, HeLa. It is filed as cell-based. The settings on record: Homo sapiens, 24 h treatment, mean ± SD of triplicate. Here is the method: as §1
(In general: Formazan colour is commonly taken as a measure of viable cells.)

The test system of data set [10] is MDA-MB-231. In words: MTT cytotoxicity assay, MDA-MB-231. It is filed as cell-based. The settings on record: Homo sapiens, 24 h treatment, mean ± SD of triplicate. Here is the method:
as §1

Data set [11] is described as follows: MTT cytotoxicity assay, normal cell line WI-38. It is filed as cell-based, human. The settings on record: human, WI-38 cells (normal human lung fibroblasts), normal (non-cancer) cell line, 24 h treatment. Here is the method: as §1
Data set [12] deals with MCF-7. In words: MTT cytotoxicity assay, MCF-7. It is filed as cell-based, human. The conditions noted are these: Homo sapiens, MCF7, 24 h, 24 h treatment, mean ± SD of triplicate. Here is the method:
as §1

Data set [13] has as its system HCT-116. In words: MTT cytotoxicity assay, HCT-116. It is filed as cell-based. The conditions noted are these: Homo sapiens, 24 h treatment, mean ± SD of triplicate. Here is the method: as §1
The mark [14] stands for this setting: HCT-116, MDA-MB-231, HeLa, MCF-7, range, read-out: IC50 values, range over the cancer cell lines tested.

Sequence of HER2 (P04626 23-1255): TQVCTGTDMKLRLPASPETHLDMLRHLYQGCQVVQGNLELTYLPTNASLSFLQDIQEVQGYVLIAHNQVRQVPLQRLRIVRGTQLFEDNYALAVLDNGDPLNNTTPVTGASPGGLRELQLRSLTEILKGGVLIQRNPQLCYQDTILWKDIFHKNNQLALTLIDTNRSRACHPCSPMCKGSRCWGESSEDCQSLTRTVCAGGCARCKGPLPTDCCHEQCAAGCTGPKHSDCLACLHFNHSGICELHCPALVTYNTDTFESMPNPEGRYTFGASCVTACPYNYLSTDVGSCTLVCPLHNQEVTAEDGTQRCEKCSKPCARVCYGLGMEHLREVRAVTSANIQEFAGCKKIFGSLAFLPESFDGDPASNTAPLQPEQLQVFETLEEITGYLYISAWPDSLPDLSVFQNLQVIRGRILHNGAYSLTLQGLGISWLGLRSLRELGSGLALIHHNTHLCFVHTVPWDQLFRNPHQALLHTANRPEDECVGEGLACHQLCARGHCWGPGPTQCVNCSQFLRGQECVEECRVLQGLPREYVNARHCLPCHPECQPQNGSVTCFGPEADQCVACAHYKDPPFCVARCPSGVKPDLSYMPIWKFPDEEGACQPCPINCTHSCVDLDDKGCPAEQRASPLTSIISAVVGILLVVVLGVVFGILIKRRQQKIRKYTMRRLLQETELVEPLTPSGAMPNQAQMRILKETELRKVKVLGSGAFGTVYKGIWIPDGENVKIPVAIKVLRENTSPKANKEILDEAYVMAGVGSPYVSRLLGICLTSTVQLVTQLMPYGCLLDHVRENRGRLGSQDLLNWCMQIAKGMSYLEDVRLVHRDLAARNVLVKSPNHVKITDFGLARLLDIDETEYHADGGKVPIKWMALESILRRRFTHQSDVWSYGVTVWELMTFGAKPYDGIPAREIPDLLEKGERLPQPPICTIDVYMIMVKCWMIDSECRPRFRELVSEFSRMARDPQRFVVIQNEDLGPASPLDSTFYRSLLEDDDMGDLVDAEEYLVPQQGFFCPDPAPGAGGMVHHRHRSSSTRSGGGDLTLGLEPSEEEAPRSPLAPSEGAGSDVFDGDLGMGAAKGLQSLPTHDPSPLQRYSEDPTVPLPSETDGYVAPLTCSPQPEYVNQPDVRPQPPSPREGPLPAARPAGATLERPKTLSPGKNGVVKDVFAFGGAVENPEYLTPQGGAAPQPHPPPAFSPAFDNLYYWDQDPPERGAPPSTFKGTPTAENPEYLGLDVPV
Sequence of VEGFR-2 (P35968 20-1356): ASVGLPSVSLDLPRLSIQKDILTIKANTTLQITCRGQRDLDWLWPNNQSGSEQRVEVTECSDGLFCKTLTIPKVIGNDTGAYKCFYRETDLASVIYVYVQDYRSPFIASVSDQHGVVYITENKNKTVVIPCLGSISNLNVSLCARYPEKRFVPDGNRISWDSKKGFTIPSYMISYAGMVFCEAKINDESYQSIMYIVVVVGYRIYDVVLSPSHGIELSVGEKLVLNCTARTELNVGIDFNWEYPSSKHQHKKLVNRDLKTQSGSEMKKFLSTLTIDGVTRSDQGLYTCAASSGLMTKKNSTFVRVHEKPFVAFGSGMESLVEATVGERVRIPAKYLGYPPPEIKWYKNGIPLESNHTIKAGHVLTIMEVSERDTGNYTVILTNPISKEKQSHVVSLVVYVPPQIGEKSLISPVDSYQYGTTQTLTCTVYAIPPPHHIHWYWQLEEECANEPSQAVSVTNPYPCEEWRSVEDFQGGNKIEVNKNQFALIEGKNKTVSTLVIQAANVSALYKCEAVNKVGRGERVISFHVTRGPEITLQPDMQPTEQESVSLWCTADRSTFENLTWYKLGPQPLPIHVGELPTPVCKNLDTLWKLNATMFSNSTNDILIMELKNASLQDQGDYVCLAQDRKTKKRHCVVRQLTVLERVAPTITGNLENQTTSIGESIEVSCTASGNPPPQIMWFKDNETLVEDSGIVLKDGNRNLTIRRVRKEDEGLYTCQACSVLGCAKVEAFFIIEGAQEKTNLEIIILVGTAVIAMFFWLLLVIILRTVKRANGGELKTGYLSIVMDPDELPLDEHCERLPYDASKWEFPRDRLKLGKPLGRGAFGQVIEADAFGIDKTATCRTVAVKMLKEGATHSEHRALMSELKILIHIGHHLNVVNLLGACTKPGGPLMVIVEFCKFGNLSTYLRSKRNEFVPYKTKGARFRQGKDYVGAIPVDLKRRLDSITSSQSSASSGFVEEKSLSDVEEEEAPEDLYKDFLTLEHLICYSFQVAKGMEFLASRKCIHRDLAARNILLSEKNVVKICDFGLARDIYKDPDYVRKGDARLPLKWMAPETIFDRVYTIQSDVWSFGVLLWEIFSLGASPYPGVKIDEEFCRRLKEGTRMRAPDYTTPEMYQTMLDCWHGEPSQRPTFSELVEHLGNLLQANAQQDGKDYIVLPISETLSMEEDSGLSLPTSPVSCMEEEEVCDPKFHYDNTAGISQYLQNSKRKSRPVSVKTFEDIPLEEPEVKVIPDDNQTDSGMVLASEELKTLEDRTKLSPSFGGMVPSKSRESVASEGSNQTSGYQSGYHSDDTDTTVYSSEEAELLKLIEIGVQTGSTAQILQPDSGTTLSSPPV
Sequence of EGFR (P00533 25-1210): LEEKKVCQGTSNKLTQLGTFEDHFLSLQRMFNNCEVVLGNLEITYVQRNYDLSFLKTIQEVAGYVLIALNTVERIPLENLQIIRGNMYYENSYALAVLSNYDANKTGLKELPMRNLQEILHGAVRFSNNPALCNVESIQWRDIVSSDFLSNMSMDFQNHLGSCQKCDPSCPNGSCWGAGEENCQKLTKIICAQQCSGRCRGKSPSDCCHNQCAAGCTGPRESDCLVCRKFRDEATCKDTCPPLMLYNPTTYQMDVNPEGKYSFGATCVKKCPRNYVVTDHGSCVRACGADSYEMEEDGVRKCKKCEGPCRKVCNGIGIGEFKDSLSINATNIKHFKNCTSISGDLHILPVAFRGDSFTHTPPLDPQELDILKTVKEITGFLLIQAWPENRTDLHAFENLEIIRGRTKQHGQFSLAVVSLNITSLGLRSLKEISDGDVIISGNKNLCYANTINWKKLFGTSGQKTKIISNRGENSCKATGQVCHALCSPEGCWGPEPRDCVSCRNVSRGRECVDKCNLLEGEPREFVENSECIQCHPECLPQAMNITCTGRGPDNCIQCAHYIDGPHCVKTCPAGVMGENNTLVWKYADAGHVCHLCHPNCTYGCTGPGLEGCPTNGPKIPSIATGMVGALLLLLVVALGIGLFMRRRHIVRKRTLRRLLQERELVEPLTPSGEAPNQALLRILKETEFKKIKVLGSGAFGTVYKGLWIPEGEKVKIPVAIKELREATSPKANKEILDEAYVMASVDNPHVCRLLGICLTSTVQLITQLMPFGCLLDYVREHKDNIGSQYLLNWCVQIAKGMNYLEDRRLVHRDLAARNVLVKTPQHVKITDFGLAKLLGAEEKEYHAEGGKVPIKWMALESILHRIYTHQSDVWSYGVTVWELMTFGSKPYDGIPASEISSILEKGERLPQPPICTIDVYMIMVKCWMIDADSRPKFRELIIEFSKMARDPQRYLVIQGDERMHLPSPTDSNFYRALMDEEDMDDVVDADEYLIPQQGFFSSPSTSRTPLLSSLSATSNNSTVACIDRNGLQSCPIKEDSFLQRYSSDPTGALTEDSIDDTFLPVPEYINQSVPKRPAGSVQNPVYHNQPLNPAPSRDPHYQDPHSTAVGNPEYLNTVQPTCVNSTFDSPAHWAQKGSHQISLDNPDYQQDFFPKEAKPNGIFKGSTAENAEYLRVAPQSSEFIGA

Consider `C[C@]12CC[C@@H]3c4ccc(O)cc4CC[C@H]3[C@@H]1CC[C@@H]2O` [Compound 17β-E2, 17β estradiol, reference compound], for which, in data set [1], the “Cell Proliferation MCF-7 %” value amounted to 100% and the “Cell Proliferation MCF-7 Cell Count” value is 18,524 ± 659. Moreover, in data set [2], the “Cell Proliferation MCF-7a %” value amounted to 100% and the “Cell Proliferation MCF-7a Cell Count” value is 20,776 ± 600.
In the case of `O=C(/C=C/c1ccccc1)c1ccccc1` [Compound 4a, (E)-Chalcone], the IC50 in [3] is 0.84 ± 0.026 µM; in [5] (HCT-116 and HeLa, range over the compounds named, read-out: IC50 values, range against HCT-116 and HeLa) it was 6.59 to 22.6 µM; in data set [5] (MDA-MB-231 and MCF-7, range over the compounds named, read-out: IC50 values, range against MDA-MB-231 and MCF-7), 2.08 to 13.6 µM; in data set [6], 0.367 ± 0.012 µM; in data set [7] it was 0.691 ± 0.027 µM; in [8], 1.55 ± 0.053 µM. The “Inhibition (%) CDK2” value was 9.7% and 12% in data set [3] (0.01 µM, individual Data 1-3); 25.6% and 28.78% in data set [3] (0.1 µM, individual Data 1-3); 53.8% and 52.78% in data set [3] (1 µM, individual Data 1-3); 72.98% and 76% in data set [3] (10 µM, individual Data 1-3); 88.7% and 92.7% in data set [3] (100 µM, individual Data 1-3). Besides, the inhibition at 0.01 µM in data set [3] (read-out: Inhibition (%) CDK2, 0.01 µM, individual Data 1-3) worked out at 11.8%; in data set [4] (read-out: Inhibition (%) Aromatase, 0.01 µM), 20%; in data set [6] (read-out: Inhibition (%) EGFR, 0.01 µM, individual Data 1-3) it was 12.3%; in data set [7] (read-out: Inhibition (%) Her2, 0.01 µM, individual Data 1-3) it was 12.3%. Moreover, the inhibition at 0.1 µM is 27.7% in data set [3] (read-out: Inhibition (%) CDK2, 0.1 µM, individual Data 1-3); 29% in [4] (read-out: Inhibition (%) Aromatase, 0.1 µM); 35.8% in data set [6] (read-out: Inhibition (%) EGFR, 0.1 µM, individual Data 1-3); 23.8% in [7] (read-out: Inhibition (%) Her2, 0.1 µM, individual Data 1-3); 21.6% in data set [8] (read-out: Inhibition (%) VEGFR2, 0.1 µM, individual Data 1-3). Also, the inhibition at 1 µM in data set [3] (read-out: Inhibition (%) CDK2, 1 µM, individual Data 1-3) was 54%; in data set [4] (read-out: Inhibition (%) Aromatase, 1 µM) it was 64%; in data set [6] (read-out: Inhibition (%) EGFR, 1 µM, individual Data 1-3), 69.9%; in data set [7] (read-out: Inhibition (%) Her2, 1 µM, individual Data 1-3), 62.2%; in data set [8] (read-out: Inhibition (%) VEGFR2, 1 µM, individual Data 1-3), 43.5%. The inhibition at 10 µM in data set [3] (read-out: Inhibition (%) CDK2, 10 µM, individual Data 1-3) turned out to be 74.1%; in data set [4] (read-out: Inhibition (%) Aromatase, 10 µM), 83%; in data set [6] (read-out: Inhibition (%) EGFR, 10 µM, individual Data 1-3), 85.6%; in [7] (read-out: Inhibition (%) Her2, 10 µM, individual Data 1-3) it was 79.1%; in data set [8] (read-out: Inhibition (%) VEGFR2, 10 µM, individual Data 1-3), 73.3%. Also, the inhibition at 100 µM in data set [3] (read-out: Inhibition (%) CDK2, 100 µM, individual Data 1-3) was 90.3%; in data set [4] (read-out: Inhibition (%) Aromatase, 100 µM), 93%; in data set [6] (read-out: Inhibition (%) EGFR, 100 µM, individual Data 1-3) it was 95.1%; in data set [7] (read-out: Inhibition (%) Her2, 100 µM, individual Data 1-3) it was 91%; in data set [8] (read-out: Inhibition (%) VEGFR2, 100 µM, individual Data 1-3) it was 89.2%. The “Inhibition (%) Aromatase” value is 19.87% and 20.56% in [4] (0.01 µM); 28.65% and 29.76% in [4] (0.1 µM); 63% and 62.76% in data set [4] (1 µM); 82.87% and 83.45% in [4] (10 µM); 92.23% and 94% in data set [4] (100 µM). Also, in data set [1], the “Cell Proliferation MCF-7 %” value is listed as 79%. For the same molecule, the “Cell Proliferation MCF-7 Cell Count” value in data set [1] is 14,553 ± 518. In addition, in [1] (relative to control), the “Reduction of growth/cell count (inhibition) in MCF-7” value is given as 21%. Besides, the “Inhibition (%) EGFR” value in [6] (0.01 µM, individual Data 1-3) was 10.8% and 13.9%; in data set [6] (0.1 µM, individual Data 1-3), 34.2% and 37.1%; in data set [6] (1 µM, individual Data 1-3), 68.2% and 66.7%; in data set [6] (10 µM, individual Data 1-3), 83.2% and 86.9%; in [6] (100 µM, individual Data 1-3) it was 93.9% and 94.2%. Besides, the “Cell Proliferation MCF-7a %” value in data set [2] was determined as 102%. Besides, in data set [2], the “Cell Proliferation MCF-7a Cell Count” value was 21,155 ± 611. The “Inhibition in MCF-7a” value in data set [2] (relative to control) is on record as “no inhibition”. Moreover, the “Inhibition (%) Her2” value was 10.6% and 14.2% in [7] (0.01 µM, individual Data 1-3); 21.8% and 24.9% in [7] (0.1 µM, individual Data 1-3); 60.9% and 59.5% in data set [7] (1 µM, individual Data 1-3); 78% and 81.2% in data set [7] (10 µM, individual Data 1-3); 89.9% and 93.1% in data set [7] (100 µM, individual Data 1-3). For the same molecule, the “Inhibition (%) VEGFR2” value in [8] (0.01 µM, individual Data 1-3) was 4.43% and 2.43% and 5.78%; in data set [8] (0.1 µM, individual Data 1-3), 19.78% and 23.4%; in data set [8] (1 µM, individual Data 1-3) it was 40.5% and 38.5%; in [8] (10 µM, individual Data 1-3), 69% and 76.6%; in [8] (100 µM, individual Data 1-3) it was 86.5% and 92.5%.
Take `O=C(/C=C/c1ccccc1OCc1ccccc1)c1ccccc1` [Compound 4g, (E)-3-(2-(Benzyloxy)phenyl)-1-phenylprop-2-en-1-one]: the 50% inhibitory concentration (IC50) was 36.5 ± 2.4 µM in [9]; 59.2 ± 3.5 µM in data set [10]; 23.5 to 74.5 µM in data set [5] (setting [14]); 48.4 ± 2.6 µM in [12]; 54 ± 3 µM in data set [13]. In data set [11], this molecule showed a 50% inhibitory concentration (IC50) at 24 h of 27.8 ± 1.9 µM.
As for `O=C(/C=C/c1cccc(OCc2ccccc2)c1)c1ccccc1` [Compound 4h, (E)-3-(3-(Benzyloxy)phenyl)-1-phenylprop-2-en-1-one], the IC50 in [9] is 25.6 ± 1.8 µM; in data set [10], 53.8 ± 3.3 µM; in [5] (setting [14]), 23.5 to 74.5 µM; in data set [12], 42.1 ± 2.4 µM; in [13], 46.8 ± 2.7 µM. Moreover, in data set [11], it took 83.4 ± 4.2 µM to reach half-maximal inhibition (IC50 at 24 h).
Regarding `CCOc1ccc(/C=C/C(=O)c2ccccc2)cc1` [Compound 4f, (E)-3-(4-Ethoxyphenyl)-1-phenylprop-2-en-1-one], the IC50 was 49.6 ± 2.8 µM in [9]; 46.1 ± 2.4 µM in data set [10]; 23.5 to 74.5 µM in data set [5] (setting [14]); 35.3 ± 2.1 µM in data set [12]; 57.6 ± 3.3 µM in data set [13]. Moreover, 64.7 ± 3.6 µM corresponded to half-maximal inhibition in data set [11] (IC50 at 24 h).

In general, IC50 refers to the concentration needed to halve the response being measured. Usually inhibition stands for the change of the read-out against control, counted positive when it falls.

(Values after paper PMC11766267 (International Journal of Molecular Sciences, 2025).)
